Data: patent publication US10519140B2, “Indolin-2-one derivatives” (Hoffmann-La Roche Inc., priority 2015, dated 2019)

Tests used:
mouse ENT-1 transporter = target: T1, mouse ENT-1 transporter (Mus musculus, UniProt Q9JIM1); experiment: Adenosine transport activity (ENT1, [3H]-adenosine uptake inhibition); type: cell-based; settings: stable cells expressing mouse ENT-1; [2,8-3H]-adenosine 6 nM, 20 min
T1 construct: expressed in transfected cells
T1 sequence (Q9JIM1 1-460): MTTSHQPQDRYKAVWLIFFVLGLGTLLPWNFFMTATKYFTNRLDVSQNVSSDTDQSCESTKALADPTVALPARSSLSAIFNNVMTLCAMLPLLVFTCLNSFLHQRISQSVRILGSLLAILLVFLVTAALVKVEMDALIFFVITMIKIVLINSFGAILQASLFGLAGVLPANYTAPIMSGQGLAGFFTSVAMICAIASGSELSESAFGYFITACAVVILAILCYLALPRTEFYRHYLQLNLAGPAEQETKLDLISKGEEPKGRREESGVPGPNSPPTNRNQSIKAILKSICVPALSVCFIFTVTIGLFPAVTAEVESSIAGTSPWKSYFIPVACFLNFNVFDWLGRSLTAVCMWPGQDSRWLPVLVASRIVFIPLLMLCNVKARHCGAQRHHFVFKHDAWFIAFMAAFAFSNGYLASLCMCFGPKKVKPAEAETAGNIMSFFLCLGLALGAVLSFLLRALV
Method: To measure adenosine transport activity of ENT-1 mammalian cells, stable cells expressing the mouse ENT-1 transporter were plated on day 1 in 96-well culture plates at the density of 60,000 cells/well, in complete DMEM/F12 medium supplemented with glutamax, 10% FBS and 10 μg/ml puromycin. On day 2, the medium was aspirated and the cells were washed twice with uptake buffer (10 mM Hepes-Tris, pH 7.4 containing 150 mM NaCl, 1 mM CaCl2, 2.5 mM KCl, 2.5 mM MgSO4, 10 mM D-glucose) (UB). For inhibition experiments, cells were then incubated at RT with various concentrations of compounds with 1% DMSO final. Non-specific uptake was defined in the presence of 10 μM S-(4-Nitrobenzyl)-6-thioinosine (NBTI, Sigma Cat #N2255). A solution containing [2,8-^3H]-adenosine 6 nM (40 Ci/mmol, American Radiolabeled chemicals Inc, Cat #ART 0287A) was then immediately added to the wells. The plates were then incubated for 20 min with gentle shaking and the reaction was stopped by aspiration of the mixture and washing (three times) with ice-cold UB. The cells were lysed by the addition of scintillation liquid, shaken 3 hours and the radioactivity in the cells was estimated using a microplates scintillation counter (TopCount NXT, Packard).

[1] = tested on: L-687,414-induced hyperlocomotion; experiment: L-687,414-induced hyperlocomotion; type: in vivo; settings: Mus musculus; mice; dose 30 mg/kg ip, 15 min before 50 mg/kg s.c. L-687,414
Description: The authors described that hyperlocomotion induced by L-687,414 was inhibited by a series of known antipsychotic drugs. […] These findings predict antipsychotic activity for the present compounds, making them useful for the treatment of positive (psychosis) and negative symptoms of schizophrenia, substance abuse, alcohol and drug addiction, obsessive-compulsive disorders, cognitive impairment, bipolar disorders, mood disorders, major depression, resistant depression, anxiety disorders, Alzheimer's disease, autism, Parkinson's disease, chronic pain, borderline personality disorder, sleep disturbances, chronic fatigue syndrome, stiffness, antiinflammatory effects in arthritis and balance problems, and treatment of epilepsy and neurodevelopmental disorders with co-morbid epilepsy.
The described compounds of formula I reduce L-687,414-induced hyperlocomotion. This was assessed by using a computerized Digiscan 16 Animal Activity Monitoring System (Omnitech Electronics, Columbus, Ohio) to quantify locomotor activity. Animals were kept under a 12 h light/dark cycle and experiments were performed during the light period. Each activity monitoring chamber consisted of a Plexiglas box (41×41×28 cm; W×L×H) with sawdust bedding on the floor surrounded by invisible horizontal and vertical infrared sensor beams. The test boxes were divided by a Plexiglas cross providing each mouse with 20×20 cm of moving space. Cages were connected to a Digiscan Analyzer linked to a computer that constantly collected the beam status information. Records of photocell beam interruptions for individual animals were taken every 5 min over the duration of the experimental session and the sum of the first 6 periods was used as the final parameter. At least 8 mice were used in each treatment group. Compounds were administered i.p. 15 min before a s.c. injection of 50 mg/kg of L-687,414. Mice were then transferred from their home cage to the recording chambers for a 15-min habituation phase allowing free exploration of the new environment. Horizontal activity was then recorded for a 30-min time period. The % inhibition of L-687,414-induced hyperlocomotion was calculated according to the equation: ((Veh+L-687,414 horizontal activity−drug+L-687,414 horizontal activity)/Veh+L−687,414 horizontal activity)×100
ID50 values, defined as doses of each compound producing 50% inhibition of L-687,414-induced hyperlocomotion, were calculated by linear regression analysis of a dose-response data using an Excel-based computer-fitting program.
As data was not presupposed to be normally distributed, groups treated with test compounds were statistically compared with the control (vehicle-treated) group using one-tailed Mann Whitney U tests. In statistics, the Mann-Whitney Utest (also called the Mann-Whitney-Wilcoxon (MWW) or Wilcoxon rank-sum test) is a non-parametric statistical hypothesis test for assessing whether one of two samples of independent observations tends to have larger values than the other. It is one of the most well-known non-parametric significance tests. […] P values given in table 1 are one-tailed since only decreases in locomotion were expected and tested for (Mann, H. B., Whitney, D. R. (1947), “On a Test of Whether one of Two Random Variables is Stochastically Larger than the Other”, Annals of Mathematical Statistics, 18 (1), 50-60).

IC50 (mouse ENT-1 transporter): 14.2 nM
Compound: Cc1ncc(-c2ccc3c(c2)N(c2ccc4c(c2)N(C)C(=O)CO4)C(=O)C3(C)C)cn1 [Example 47, 6-(3,3-Dimethyl-6-(2-methylpyrimidin-5-yl)-2-oxoindolin-1-yl)-4-methyl-2H-benzo[b][1,4]oxazin-3(4H)-one]
inhibition in vivo at 30 mg/kg [1]: 93.8%
